One series relates to metHb. As to the kind of experiment: metHb levels in clinical trial subjects receiving LMTM. The class given is in vivo, human. An excerpt:
In order to understand this effect further the inventors investigated whether the low oxygen saturation in these patients is due to elevation in metHb levels. There was no difference in metHb levels at baseline between subjects with low SpO2 and those with SpO2 levels in the normal range.
Therefore, LMTM is able to act on haemoglobin over a range of doses in such a way as to enhance oxygen saturation in the blood by a novel mechanism unrelated to its known effects on metHb.

Series [1] can be described thus: Oxygen saturation (SpO2) in clinical trial subjects with low oxygen saturation, pre-dose vs 4 hrs after a single dose. Format: in vivo, human. An excerpt: The present inventors have used data available for patients participating in clinical trials to determine whether LMT enhances oxygen saturation of blood. Data were available for 18 subjects with oxygen saturation <94% at baseline (lower limit of normal range is
These patients recorded a variety of respiratory or other conditions of various degrees of severity which it was suspected may have contributed to the detected hypoxemia, including sleep apnoea, insomnia (which may be indicative of Paroxysmal nocturnal dyspnea or paroxysmal nocturnal dyspnoea), asbestosis, oedema, asthma, bronchitis, allergies, angioedema, pneumonia, acute myocardial infarction/ hypertension, Coronary artery disease with angioplasty and stent insertion, transient ischaemic attacks (TIA), hypothyroidism, diabetes, syncope, tachycardia and sepsis. […]

The mark [2] stands for this setting: LMT at high concentrations, oral doses in the range 150-250 mg/day.

On to `CN(C)c1ccc2c(c1)Sc1cc(N(C)C)ccc1N2` [LMTM, leuco-methylthioninium bis(hydromethanesulfonate)], for which, in the series with metHb (LMTM at higher doses / high dosages over a period of time, FIG. 3), the metHb levels entry is on record as “systematically increases”. In addition, the “oxygen saturation at 4 hours” value in series [1] (single dose of LMT at 4 mg and ~100 mg (mean of 75, 100, 125 mg), 18 subjects with oxygen saturation <94% at baseline, pre-dose vs 4 hrs post-dose) is reported as “significantly increased”.

For the compound `CN(C)c1ccc2c(c1)Sc1cc(N(C)C)ccc1N2` [LMT], the metHb levels result with metHb (setting [2]) is “measurable increase”. In addition, the SpO2 levels result in series [1] (setting [2]) was “increase SpO2 levels”.
